Source: patent US7005443B1, “5-Hydroxy indazole derivatives for treating glaucoma” (priority 2000, dated 2006)
pEC50: −log10 of the molar value. Where two headings read alike, the source gives them in different places.

Key:
5HT2 receptor = target: T1, 5HT2 receptor (Rattus norvegicus, UniProt P14842); experiment: 5HT2 Functional Assay: Phosphoinositide (PI) turnover assay; format: cell-based; conditions: for Emax: A7R5, read-out: Efficacy (Emax, %)
T1 construct: A7r5 rat vascular smooth muscle cells; endogenous in cells; host or cells: A7r5 rat vascular smooth muscle cells
Method: 5HT2 Functional Assay: Phosphoinositide (PI) turnover assay
The relative agonist activity of serotonergic compounds at the 5HT2 receptor can be determined in vitro using the ability of the compounds to stimulate the production of [^3H]inositol phosphates in [^3H]myo-inositol-labeled A7r5 rat vascular smooth muscle cells by their ability to activate the enzyme phospholipase C. These cells are grown in culture plates, maintained in a humidified atmosphere of 5% CO2 and 95% air and fed semi-weekly with Dulbecco's modified Eagle medium (DMEM) containing 4.5 g/l glucose and supplemented with 2 mM glutamine, 10 μg/ml gentamicin, and 10% fetal bovine serum. For the purpose of conducting the phosphoinositide (PI) turnover experiments, the A7r5 cells are cultured in 24-well plates as previously [J. Pharmacol. Expt. Ther., 286, 411 (1998)]. Confluent cells are exposed for 24–30 hrs to 1.5 μCi [^3H]-myo-inositol (18.3 Ci/mmol) in 0.5 ml of serum-free medium. Cells are then rinsed once with DMEM/F-12 containing 10 mM LiCl prior to incubation with the test agent (or solvent as the control) in 1.0 ml of the same medium for 1 hr at 37° C., after which the medium is aspirated and 1 ml of cold 0.1 M formic acid added to stop the reaction. The chromatographic separation of [^3H]-inositol phosphates ([^3H]-IPs) on an AG- 1-X8 column is performed as previously described [J. Pharmacol. Expt. Ther. 286, 411 (1998)] with sequential washes with H2O and 50 mM ammonium formate, followed by elution of the total [^3H]-IPs fraction with 1.2 M ammonium formate containing 0.1 M formic acid. The eluate (4 ml) is collected, mixed with 15 ml scintillation fluid, and the total [3H]-IPs determined by scintillation counting on a beta-counter. Concentration-response data are analyzed by the sigmoidal fit function of the Origin Scientific Graphics software (Microcal Software, Northampton, Mass.) to determine agonist potency (EC50 value) and efficacy (Emax). Serotonin (5HT) is used as a positive control (standard) agonist compound and the efficacy of test compounds is compared to that of 5HT (set at 100%). The concentration of the compound needed to stimulate the production of […] by 50% of the maximum response is termed the EC50 value.

T1 sequence (P14842 whole entry): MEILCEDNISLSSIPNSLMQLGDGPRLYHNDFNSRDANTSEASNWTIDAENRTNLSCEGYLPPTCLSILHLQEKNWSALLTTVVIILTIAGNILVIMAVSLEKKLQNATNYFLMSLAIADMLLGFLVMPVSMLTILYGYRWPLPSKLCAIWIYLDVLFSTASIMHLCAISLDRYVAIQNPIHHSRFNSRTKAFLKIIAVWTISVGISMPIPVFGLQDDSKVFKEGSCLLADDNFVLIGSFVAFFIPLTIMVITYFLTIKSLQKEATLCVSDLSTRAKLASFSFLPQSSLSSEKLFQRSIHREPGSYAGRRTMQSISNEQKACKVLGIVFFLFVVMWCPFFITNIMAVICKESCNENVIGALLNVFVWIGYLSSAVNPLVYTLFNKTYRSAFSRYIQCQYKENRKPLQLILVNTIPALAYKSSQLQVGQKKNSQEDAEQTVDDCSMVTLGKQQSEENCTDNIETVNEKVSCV

Compound	pEC50 (5HT2 receptor)	Emax (5HT2 receptor)	melting point	pEC50 (5HT2 receptor; [3H]inositol phosphate production in A7r5 rat vascular smooth muscle cells, read-out: EC50)
CC(N)Cc1nn(C)c2ccc(O)cc12.O=C(O)/C=C/C(=O)O (stereo not drawn) [3-(2-Aminopropyl)-1-methyl-1H-indazol-5-ol fumarate]	6.11	98%	136 to 139 °C	–
CC(N)Cc1n[nH]c2ccc(O)cc12.Cl (stereo not drawn) [3-(2-Aminopropyl)-1H-indazol-5-ol hydrochloride]	–	97%	227 to 230 °C	5.92
